According to patent US12396994B2, “Compositions for improving physiological function with age” (The Regents Of The University Of Colorado, a body corporate, priority 2017, dated 2025):

Legend:
cells = settings: reported, trehalose in cells and in mice; cited from earlier work
[1] = tested on: human umbilical vein endothelial cells (HUVEC); assay: Autophagy induction in HUVEC, Cyto-ID fluorescence microplate detection; format: cell-based; settings: 24 h
Method: First, we compiled a library of naturally occurring compounds known to enhance autophagy. Then, we calculated physiologically relevant concentrations of these compounds based on existing data (e.g., previously reported post-prandial plasma concentrations), and we tested each for its ability to induce autophagy at its calculated concentration alone and/or in combination with other candidate compounds. […] In all experiments, autophagy was assessed in human umbilical vein endothelial cells (HUVEC), because of their relevance to vascular physiological measures (in vivo measures, below). Pooled HUVEC cultures obtained from Cascade Biologics were grown in endothelial cell-specific medium (Lonza) at 37° C. in a […] incubator. Third passage cells were seeded into 96-well plates and allowed to reach 70% confluency, at which point candidate treatment compounds or combinations were applied for 24 hours. […] Autophagy was assessed using Enzo Life Sciences Cyto-ID autophagy detection reagents (fluorescence microplate detection of autophagic structures) according to manufacturers instructions on an M5 Spectramax fluorescent plate reader (Molecular Devices). Candidate AEON formulations were designated as AEON-1, -2, etc.
To identify a mixture of food-safe compounds that synergistically activates autophagy (the cellular process of recycling damaged internal components), we screened a library of natural compounds reported to induce autophagy in vitro (in cells). […] Autophagy was assessed via fluorescent microplate assay and confirmed by microscopy in cultured human umbilical vein endothelial cells treated for 24 hours.

[2] = low (physiologically relevant) doses, ingredient alone (trehalose 5 mM)

Row | Structure (SMILES) | Concentration at which the single agent induces autophagy (cells) [mM] | Autophagy induction (relative microplate fluorescence) [1, 2] | Autophagy induction (relative microplate fluorescence) ([1]; established inducers at rapamycin 0.5 μM, trehalose 50 mM (high dose), FIG. 1A)
1 | Cn1c(=O)c2c(ncn2C)n(C)c1=O [caffeine] | 1 to 20 |  | 
2 | C=C1CC[C@H](O)C/C1=C/C=C1\CCC[C@]2(C)[C@@H]([C@H](C)CCCC(C)C)CC[C@@H]12 [cholecalciferol] |  | had no effect on autophagy | 
3 | O=C(O[C@@H]1Cc2c(O)cc(O)cc2O[C@@H]1c1cc(O)c(O)c(O)c1)c1cc(O)c(O)c(O)c1 [epigallocatechin gallate] |  | had no effect on autophagy | 
4 | OC[C@H]1O[C@H](O[C@H]2O[C@H](CO)[C@@H](O)[C@H](O)[C@H]2O)[C@H](O)[C@@H](O)[C@@H]1O [trehalose] | 50 to 100 | had no effect on autophagy | significantly stimulated autophagy
